Tests used:
[1] = target: T1, S1P1 receptor (Homo sapiens, UniProt P21453); experiment: 35S-GTPγS binding assay using membrane preparation of CHO cell stably expressing S1P1 receptor; type: biochemical; settings: agonist activity
T1 construct: expressed in transfected cells; membrane preparation
Method: ^35s-GTPγS binding assay using membrane preparation of CHO cell stably expressing S1P1 receptor
A G protein-GTPγS binding test associated with a ligand was performed by using a membrane preparation which was obtained from a CHO cell which stably overexpressed S1P1 receptor. In a 96 well-micro-titer dish, the produced membrane protein and a compound which was diluted with a solvent such as DMSO or sphingosine-1-phosphate in various concentrations was incubated in a solution containing 20 mM of Tris-Cl (pH7.5), 100 mM of NaCl, 10 mM of MgCl2, 5μM of GDP, 0.1% of BSA, and […] of ^35s-GTPγS (specific radioactivity, 1250 Ci mmol). The binding was performed for 1 or more hours at room temperature, and the membrane was harvested on a GF/B filter plate by using a Millipore's MultiScreen Separation System to end the binding. After the filter plate was dried for 30 or more minutes, 25 μL of MicroScint-20 was added to each well, and the binding was measured by using the TopCount.
For the agonist activity of compound, the value of a well which a solvent was added to was set to a control value and compared with an increment of an evaluation compound-added well, so that the increment of each concentration of the compound was obtained. EC50 value was calculated under the definition that the value is an agonist concentration required to provide 50% of the maximum increment thereof. […]

[2] = target: T2, S1P3 receptor (Homo sapiens, UniProt Q99500); experiment: 35S-GTPγS binding assay using membrane preparation of CHO cell temporarily expressing S1P3 receptor; type: biochemical; settings: agonist activity, membrane of CHO cell temporarily transfected with S1P3 gene
T2 construct: expressed in transfected cells; host or cells: CHO cells, transient transfection; membrane protein
T2 sequence (Q99500 whole entry): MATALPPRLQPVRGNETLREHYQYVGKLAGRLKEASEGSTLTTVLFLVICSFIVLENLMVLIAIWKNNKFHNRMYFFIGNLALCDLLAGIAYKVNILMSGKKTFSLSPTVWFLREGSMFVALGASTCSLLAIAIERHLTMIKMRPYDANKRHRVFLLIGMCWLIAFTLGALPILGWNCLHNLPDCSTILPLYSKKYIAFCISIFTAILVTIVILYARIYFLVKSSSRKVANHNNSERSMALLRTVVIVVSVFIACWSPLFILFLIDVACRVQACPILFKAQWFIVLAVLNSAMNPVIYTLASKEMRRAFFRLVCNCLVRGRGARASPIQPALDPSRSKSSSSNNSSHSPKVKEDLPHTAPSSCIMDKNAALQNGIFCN
Method: ^35s-GTPγS binding assay using membrane preparation of CHO cell of temporarily expressing S1P3 receptor
A GTPγS binding test associated with S1P3 receptor was performed by using the same method as that of the GTPγS binding test associated with S1P1 receptor. In the test, a membrane protein which was produced from a CHO cell in which S1P3 gene was temporarily transfected was used.
For the agonist activity of compound, the value of a well which a solvent was added to was set to a control value and compared with an increment of an evaluation compound-added well, so that the increment of each concentration of the compound was obtained. EC50 value was calculated under the definition that the value is an agonist concentration required to provide 50% of the highest increment thereof.

[3] = system: peripheral lymphocytes; experiment: Evaluation of reduction in peripheral blood lymphocyte count; type: in vivo; settings: 3 h; rat, oral; dose required to reduce the lymphocyte count by 50% in three hours from the administration
Method: Evaluation of Reduction in Peripheral Blood Lymphocyte count
A compound or a solvent was orally administered to a rat. When 3, 6, 24, 48, and 72 hours had elapsed since the administration of compound, blood was withdrawn from its tail vein. All the blood samples were analyzed hematologically. The total count of peripheral lymphocytes was measured by using an auto-analyzer (Sysmex 2000Xi). The effect of each compound to the total count of peripheral lymphocytes was evaluated by using three or more rats in one group. The reduction in lymphocyte count caused by the administration of compound was compared with that caused by the administration of solvent to a rat group. Namely, the average lymphocyte count of a solvent-administered group was set to 100%, and a control value (%) was calculated from the average lymphocyte count of a compound-administered group. An ED50 value, that is, a dosed amount of the compound required to reduce the lymphocyte count by 50% in three hours from the administration was calculated from the dosed amount of the compound and the control value (%).

[4] = system: adjuvant arthritis rat; experiment: Adjuvant-induced arthritis model; type: in vivo; settings: 504 h, Lewis female rats, oral once daily for 21 days, dose required to suppress swelling of hind paw by 50% on the 21-th day
Method: Adjuvant-Induced Arthritis Model
7-weeks old Lewis female rats are used for evaluation. The volume of a hind paw of a rat was measured. As an adjuvant, 500 μg/100 μL of M. tuberclulosis H37 RA (manufactured by Difco) is subcutaneously injected into the plantar of the left hind paw, so that an adjuvant arthritis rat is produced. A compound which is suspended in a 1% methylcellulose solution is forcibly oral-administered to the stomach by using an oral sonde one-time everyday for 21 days from the injection date of the adjuvant. The evaluation of arthritis is performed by measuring the volume of paw of each tested subject by using PLETHYSMOMETER (manufactured by UGO BASILE) and comparing the measured deta of a compound-administered group with those of a solvent-administered group. Swelling of the plantar portion of hind leg of the solvent-administered group was set to 100%, and a control value (%) was calculated from the swelling of the compound-administered group. An ED50 value, that is, a dosed amount of the compound required to suppress the swelling of the plantar portion of hind paw on the 21-th day from the administration date of the adjuvant by 50% was calculated from the dosed amount of the compound and the control value (%).

T1 sequence (P21453 whole entry): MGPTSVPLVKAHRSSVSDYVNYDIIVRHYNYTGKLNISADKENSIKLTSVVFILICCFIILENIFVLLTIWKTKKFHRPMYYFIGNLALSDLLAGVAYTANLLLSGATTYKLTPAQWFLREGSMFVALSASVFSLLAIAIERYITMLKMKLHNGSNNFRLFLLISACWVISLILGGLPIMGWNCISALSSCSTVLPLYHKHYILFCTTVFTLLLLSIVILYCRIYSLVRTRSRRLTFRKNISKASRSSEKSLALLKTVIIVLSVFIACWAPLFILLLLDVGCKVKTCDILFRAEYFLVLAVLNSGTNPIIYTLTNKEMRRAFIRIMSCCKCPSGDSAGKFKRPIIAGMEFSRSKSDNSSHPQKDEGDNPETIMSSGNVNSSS

O=C(O)[C@H]1CCC[C@H](NCc2ccc(OCc3cc(-c4ccccc4)c(C(F)(F)F)s3)cc2)C1 [Example 4]
EC50 [1]: 34 nM
EC50 [2]: 870 nM

O=C(O)C1CC(NCc2ccc(OCc3cc(-c4ccccc4)c(C(F)(F)F)s3)cc2)C1 (stereo not shown) [Example 6]
ED50 [3]: 5.1 mg/kg

O=C(O)[C@H]1CC[C@H](NCc2ccc(OCc3cc(-c4ccccc4)c(C(F)(F)F)s3)cc2)C1 [Example 25]
EC50 [1]: 4 nM
EC50 [2]: 117 nM

CC(C)Cc1ccc(-c2nc(-c3ccc(CNCCC(=O)O)cc3)no2)cc1.Cl [Example 40]
EC50 [1]: 0.5 nM
ED50 [3]: 0.71 mg/kg

CC(C)COc1ccc(-c2nc(-c3ccc(CNCCC(=O)O)cc3)no2)cc1C(F)(F)F.Cl [Example 46]
EC50 [1]: 0.5 nM
ED50 [3]: 2.1 mg/kg

Cc1cc(-c2nc(-c3ccc(CNCCC(=O)O)cc3)no2)ccc1-c1ccccc1.Cl [Example 54]
EC50 [1]: 0.34 nM
ED50 [3]: 0.44 mg/kg
ED50 [4]: 0.33 mg/kg

Cl.O=C(O)CCNCc1ccc(-c2noc(C3CCC(c4ccccc4)CC3)n2)cc1 (stereo not shown) [Example 61]
EC50 [1]: 1.5 nM
ED50 [3]: 0.53 mg/kg

Cc1cc(-c2nc(-c3ccc(CNCCC(=O)O)cc3)no2)ccc1-c1ccccc1C#N.Cl [Example 78]
EC50 [1]: 0.26 nM
ED50 [3]: 0.37 mg/kg

Cl.N#Cc1ccccc1-c1ccc(-c2nc(-c3ccc(CNCCC(=O)O)cc3)no2)cc1C#N [Example 90]
EC50 [1]: 1.4 nM
ED50 [3]: 4.1 mg/kg

Cl.N#Cc1ccccc1-c1ccc(-c2nc(-c3ccc(CNCCC(=O)O)cc3)no2)cc1C(F)(F)F [Example 93]
EC50 [1]: 0.48 nM
ED50 [3]: 0.64 mg/kg

Cl.O=C(O)CCNCc1ccc(-c2noc(-c3ccc(-c4ccccc4)c(C(F)(F)F)c3)n2)cc1 [Example 94]
EC50 [1]: 0.25 nM
ED50 [3]: 0.087 mg/kg

Cl.O=C(O)CCNCc1ccc(-c2noc(-c3ccc(CCC(F)(F)F)cc3)n2)cc1 [Example 104]
EC50 [1]: 2.1 nM
ED50 [3]: 0.7 mg/kg

Cl.O=C(O)CCNCc1ccc(-c2noc(-c3ccc(-c4ccccc4)c(OC(F)(F)F)c3)n2)cc1 [Example 105]
EC50 [1]: 0.49 nM
ED50 [3]: 0.084 mg/kg

Cl.N#Cc1ccccc1-c1ccc(-c2nc(-c3ccc(CNCCC(=O)O)cc3)no2)cc1OC(F)(F)F [Example 106]
EC50 [1]: 1.2 nM
ED50 [3]: 0.5 mg/kg

Cc1cc(-c2nc(-c3ccc(CNCCC(=O)O)cc3)no2)ccc1-c1ccoc1.Cl [Example 117]
EC50 [1]: 0.07 nM
ED50 [3]: 0.88 mg/kg

CC(C)Oc1ccc(-c2nc(-c3ccc(CN[C@H]4C[C@H](C(=O)O)C4)cc3)no2)cc1C(F)(F)F [Example 135]
EC50 [1]: 0.72 nM
ED50 [3]: 0.16 mg/kg
ED50 [4]: 0.21 mg/kg

Cc1cc(CNCCC(=O)O)ccc1-c1noc(-c2ccc(-c3ccccc3C#N)c(C)c2)n1 [Example 145]
EC50 [1]: 0.2 nM
ED50 [3]: 0.46 mg/kg

Cc1cc(CNC2CC(C(=O)O)C2)ccc1-c1noc(-c2ccc(-c3ccccc3C#N)c(C)c2)n1 (stereo not shown) [Example 147]
EC50 [1]: 2.4 nM
ED50 [3]: 0.72 mg/kg

Source: patent US20080200535A1, “Amine Compounds” (Asahi Kasei Pharma Corporation, priority 2006, published 2008)
